US20210060016A1, “ANTICANCER AGENT” (JAPANESE FOUNDATION FOR CANCER RESEARCH, priority 2017, published 2021)

Target: T1, tankyrase-2 (Homo sapiens, UniProt Q9H2K2)
T1 sequence (Q9H2K2 1-1166): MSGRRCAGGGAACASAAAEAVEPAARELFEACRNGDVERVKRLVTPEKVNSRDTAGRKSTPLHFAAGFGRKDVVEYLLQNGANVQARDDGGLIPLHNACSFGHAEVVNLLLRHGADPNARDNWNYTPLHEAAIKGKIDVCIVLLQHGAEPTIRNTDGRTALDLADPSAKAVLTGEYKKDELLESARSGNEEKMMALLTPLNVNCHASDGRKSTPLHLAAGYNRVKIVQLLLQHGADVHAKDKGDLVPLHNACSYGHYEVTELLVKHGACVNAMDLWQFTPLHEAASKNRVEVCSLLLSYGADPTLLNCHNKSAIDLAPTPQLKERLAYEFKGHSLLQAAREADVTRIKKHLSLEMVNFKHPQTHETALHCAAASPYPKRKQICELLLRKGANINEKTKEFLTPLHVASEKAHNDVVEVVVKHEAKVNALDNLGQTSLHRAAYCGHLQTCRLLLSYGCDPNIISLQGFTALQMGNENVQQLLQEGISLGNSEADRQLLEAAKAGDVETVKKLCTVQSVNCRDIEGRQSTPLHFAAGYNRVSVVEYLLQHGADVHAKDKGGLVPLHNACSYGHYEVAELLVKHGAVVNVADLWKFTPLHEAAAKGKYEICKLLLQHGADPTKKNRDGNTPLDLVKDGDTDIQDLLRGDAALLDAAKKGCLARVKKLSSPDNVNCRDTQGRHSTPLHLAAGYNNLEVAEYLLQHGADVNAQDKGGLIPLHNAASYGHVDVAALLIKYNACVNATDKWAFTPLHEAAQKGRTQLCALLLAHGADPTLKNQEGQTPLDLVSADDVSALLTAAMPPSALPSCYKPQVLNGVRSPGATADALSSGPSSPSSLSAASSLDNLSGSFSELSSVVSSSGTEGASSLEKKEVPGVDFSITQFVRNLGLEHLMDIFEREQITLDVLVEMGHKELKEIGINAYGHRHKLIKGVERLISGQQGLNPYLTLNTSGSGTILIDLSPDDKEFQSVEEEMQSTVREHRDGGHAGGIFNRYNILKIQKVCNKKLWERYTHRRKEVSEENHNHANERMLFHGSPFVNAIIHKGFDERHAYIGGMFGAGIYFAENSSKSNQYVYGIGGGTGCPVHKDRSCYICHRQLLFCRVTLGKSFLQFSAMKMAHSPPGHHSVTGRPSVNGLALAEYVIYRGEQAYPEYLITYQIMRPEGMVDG
Assay: X-ray diffraction of tankyrase-2 crystal soaked with the compound
Assay type: binding
Source text: In the present invention, whether the tankyrase inhibitory compound is a nicotinamide-type compound or an adenosine-type compound can be determined by X-ray diffraction, more specifically a method in which a complex is crystallized from a mixed liquid of a tankyrase crystal prepared beforehand and the tankyrase inhibitory compound, and subjected to X-ray diffraction (soaking method), or a method in which a complex is crystallized from a mixed liquid having the tankyrase inhibitory compound coexisting with tankyrase in a state before the crystallization, and subjected to X-ray diffraction (co-crystallization). Whether the tankyrase inhibitory compound is a dual-type compound can be determined by preparing a crystal under any one of the above-described conditions, and performing X-ray diffraction.
X-ray diffraction data of a tankyrase-2 crystal soaked with the compound prepared in Compound Example 1 was measured with BL26B2 Beam Line in a large synchrotron radiation facility Spring-8 (Sayo-gun, Hyogo). The wavelength of the X-ray was 1.000 Å, and MX-225 (Rayonix, LLC) was used as a detector. The diffraction data was treated with XDS (Kabsch, 2010) and the CCP4 program (Winn et al., 2011).

CCOc1ccc(-c2n[nH]nc2[C@H]2NC(=O)c3cccc(C)c3N2)cc1 [Compound Example 101, (2R)-2-[5-(4-Ethoxyphenyl)-2H-1,2,3-triazol-4-yl]-8-methyl-2,3-dihydro-1H-quinazolin-4-one]
binding pocket type by X-ray diffraction: nicotinamide-type compound which binds to the nicotinamide binding pocket of tankyrase
